This assay has as its target T1, Human TRPC6 (Homo sapiens, UniProt Q9Y210).
T1 construct: expressed in transfected cells
T1 sequence (Q9Y210 1-931): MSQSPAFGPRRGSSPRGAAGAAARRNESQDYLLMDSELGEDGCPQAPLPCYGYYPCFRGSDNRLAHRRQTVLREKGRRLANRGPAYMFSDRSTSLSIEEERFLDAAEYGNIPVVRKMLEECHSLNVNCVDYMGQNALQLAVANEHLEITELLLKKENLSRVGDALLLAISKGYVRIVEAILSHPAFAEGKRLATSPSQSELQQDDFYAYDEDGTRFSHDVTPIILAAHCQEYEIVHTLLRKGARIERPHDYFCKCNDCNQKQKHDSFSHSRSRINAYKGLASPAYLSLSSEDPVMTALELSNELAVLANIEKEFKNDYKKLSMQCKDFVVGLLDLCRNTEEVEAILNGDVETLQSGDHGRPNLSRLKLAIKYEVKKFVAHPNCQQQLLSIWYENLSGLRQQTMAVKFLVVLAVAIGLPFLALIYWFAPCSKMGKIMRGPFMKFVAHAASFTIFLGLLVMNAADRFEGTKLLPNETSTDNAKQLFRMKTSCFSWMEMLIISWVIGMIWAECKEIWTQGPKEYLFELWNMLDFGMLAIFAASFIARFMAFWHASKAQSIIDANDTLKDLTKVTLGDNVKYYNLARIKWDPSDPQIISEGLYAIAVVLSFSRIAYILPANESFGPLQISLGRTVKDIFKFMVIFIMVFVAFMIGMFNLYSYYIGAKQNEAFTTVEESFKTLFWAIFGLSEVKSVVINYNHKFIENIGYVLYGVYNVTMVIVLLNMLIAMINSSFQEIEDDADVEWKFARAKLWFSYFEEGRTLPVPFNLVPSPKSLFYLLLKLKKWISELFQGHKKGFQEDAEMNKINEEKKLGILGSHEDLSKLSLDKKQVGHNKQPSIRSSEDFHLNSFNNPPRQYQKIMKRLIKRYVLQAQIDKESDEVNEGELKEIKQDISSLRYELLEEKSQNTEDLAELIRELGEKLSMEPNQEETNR
Briefly: Evaluation of TRPC6 channel inhibitory activity (2), HEK293 cells with stably introduced human TRPC6, OAG stimulation, FLIPR tetra (Compound Nos. 1293 to 1405). The conditions noted are these: HEK293 cells with stably introduced human TRPC6, OAG 50 μM/0.5% DMSO, read-out: Inhibitory activity (pIC50 class) (converted). Type of assay: cell-based. The protocol: Evaluation of TRPC6 Channel Inhibitory Activity (2) (Compound Nos. 1293 to 1405)
The activity of the TRPC6 inhibitor was measured by stimulating HEK293 cells, in which human TRPC6 was stably introduced, with OAG (1-Oleoyl-2-acetyl-sn-glycerol, Miliipore Sigma, 06754), using the FLIPR tetra system. The cells were proliferated in a humid environment at 37° C. 5% CO2 using a growth medium (DMEM (Dulbecco's Modified Eagle's Medium) high glucose containing 10% fetal bovine serum, 1×PSGlu (penicillin-streptomycin glutamine), 1×NEAA (Non-essential amino acid), sodium pyruvate and 200 μg/mL hyglomycin. For cell subculture, the cells were proliferated to 70-90% confluence, and gently washed twice with PBS (phosphate-buffered saline) free of calcium and magnesium after removing the medium. Then, the cells were incubated at 37° C. for 5 minutes after adding trypsin (3 mL), peeled off by tapping the flask at the base of the hand, 7 mL of growth medium was added to inactivate trypsin, and then the cells were resuspended. Usually, the cells were separated every 2-3 days to become a cell density of ⅕. The day before evaluation, the cells were seeded in a poly-D-lysine (PDL) coated 384-well plate using a multi-channel pipette or multidrop at a cell density of 1.0-1.5×10^4 cells/25 μL/well. After culturing overnight in a PDL-coated 384 Blackwell plate, a fluorescent dye buffer was added first to the cells and the cells were cultured at room temperature for 90-120 minutes. For preparing 10 mL of fluorescent dye buffer, 9 mL of assay buffer, 1 mL of 10×PBX signal enhancer, and 10 μL of calcium indicator were mixed. Cells treated with the compounds of each level 25 minutes before the stimulation with OAG of TRPC6 agonist were incubated. OAG solution was prepared by adding OAG to assay buffer (Ca ringer solution base: 10 mM HEPES (4-(2-hydroxyethyl)-1-piperazine-ethanesulfonic acid), 4 mM MgCl2, 120 mM NaCl, 5 mM KCl, pH=7.2 (25° C.)+0.1% BSA+2 mM CaCl2)) to give an OAG concentration of 0.2 mM/2% DMSO. The final concentration of OAG added to the cells is 50 μM/0.5% DMSO. A volume of 12.5 μL of OAG solution was added, and activation of TRPC6 channel was measured using the FLIPR tetra system assaying the change in intracellular calcium level as an index. The 180 seconds imaging frame was defined as the background signal, and the subtraction of the background signal from the raw data was used as the fluorescence peak signal. Each fluorescence peak signal is standardized using an OAG-induced signal and buffer-induced signal as 100% and 0%, respectively. The inhibition rate obtained by plotting the peak signal after the addition of the compounds of each level was analyzed by a four-parameter logistic regression to quantify the inhibition rate in the logarithm of the inverse of the effective concentration which gives a 50% inhibition rate (pIC50). The intensity was expressed by the above-mentioned symbols (+, ++, +++).

In the case of `Cn1nc(-c2ccccn2)cc1Oc1cc(F)ccc1-c1ncc(CN)cn1` [compound 1341, [2-[4-fluoro-2-(2-methyl-5-pyridin-2-ylpyrazol-3-yl)oxyphenyl]pyrimidin-5-yl]methanamine], the IC50 is 10 to 1000 nM.
Take `Cn1nc(-c2ccccn2)cc1Oc1cc(F)ccc1-c1ncc([C@@H](F)CN)cn1` [compound 1342, (2R)-2-fluoro-2-[2-[4-fluoro-2-(2-methyl-5-pyridin-2-ylpyrazol-3-yl)oxyphenyl]pyrimidin-5-yl]ethanamine]: the IC50 is 10 to 1000 nM.
In the case of `Cn1nc([C@H]2CCOC2)cc1Oc1cc(Cl)ccc1-c1ncc([C@H](F)CN)cn1` [compound 1344, (2S)-2-[2-[4-chloro-2-[2-methyl-5-[(3R)-oxolan-3-yl]pyrazol-3-yl]oxyphenyl]pyrimidin-5-yl]-2-fluoroethanamine], the IC50 is above 1000 nM.
As to `Cn1nc([C@H]2CCOC2)cc1Oc1cc(Cl)ccc1-c1ccc(CN)cn1` [compound 1345, [6-[4-chloro-2-[2-methyl-5-[(3R)-oxolan-3-yl]pyrazol-3-yl]oxyphenyl]pyridin-3-yl]methanamine], the IC50 was 10 to 1000 nM.
Turning to `Cn1nc(C2CC2)cc1Oc1cc(Cl)ccc1-c1ccc(CN)cn1` [compound 1346, [6-[4-chloro-2-(5-cyclopropyl-2-methylpyrazol-3-yl)oxyphenyl]pyridin-3-yl]methanamine], the IC50 was below 10 nM.
As to `Cn1nc(C2CC2)cc1Oc1cc(Cl)ccc1-c1ncc([C@H](F)CN)cn1` [compound 1347, (2S)-2-[2-[4-chloro-2-(5-cyclopropyl-2-methylpyrazol-3-yl)oxyphenyl]pyrimidin-5-yl]-2-fluoroethanamine], the IC50 is 10 to 1000 nM.
Regarding `Cn1nc(C2CC2)cc1Oc1cc(Cl)ccc1-c1ncc([C@@H](F)CN)cn1` [compound 1348, (2R)-2-[2-[4-chloro-2-(5-cyclopropyl-2-methylpyrazol-3-yl)oxyphenyl]pyrimidin-5-yl]-2-fluoroethanamine], the IC50 is below 10 nM.
For `Cc1cc(Oc2cc(Cl)ccc2-c2ncc([C@H](O)CN)cn2)cc(N2CCOCC2)n1` [compound 1349, (1S)-2-amino-1-[2-[4-chloro-2-(2-methyl-6-morpholin-4-ylpyridin-4-yl)oxyphenyl]pyrimidin-5-yl]ethanol], the IC50 was 10 to 1000 nM.
The same measure for `Cc1cc(Oc2cc(Cl)ccc2-c2ncc([C@@H](O)CN)cn2)cc(N2CCOCC2)n1` [compound 1350, (1R)-2-amino-1-[2-[4-chloro-2-(2-methyl-6-morpholin-4-ylpyridin-4-yl)oxyphenyl]pyrimidin-5-yl]ethanol]: below 10 nM; for `Cn1nc(-c2ccccn2)cc1Oc1cc(Cl)cnc1-c1ncc(CN)cn1` [compound 1351, [2-[5-chloro-3-(2-methyl-5-pyridin-2-ylpyrazol-3-yl)oxypyridin-2-yl]pyrimidin-5-yl]methanamine]: above 1000 nM.
The result for `Cn1nc([C@H]2CCOC2)cc1Oc1cc(Cl)ccc1-c1ncc([C@@H](F)CN)cn1` [compound 1352, (2R)-2-[2-[4-chloro-2-[2-methyl-5-[(3R)-oxolan-3-yl]pyrazol-3-yl]oxyphenyl]pyrimidin-5-yl]-2-fluoroethanamine] reads 10 to 1000 nM.
As to `Cn1nc(-c2ccccn2)cc1Oc1cc(Cl)cnc1-c1ccc([C@@H](F)CN)cn1` [compound 1353, (2R)-2-[6-[5-chloro-3-(2-methyl-5-pyridin-2-ylpyrazol-3-yl)oxypyridin-2-yl]pyridin-3-yl]-2-fluoroethanamme], the IC50 was 10 to 1000 nM.
In the case of `Cn1nc(-c2ccccn2)cc1Oc1cc(Cl)cnc1-c1ccc([C@H](F)CN)cn1` [compound 1354, (2S)-2-[6-[5-chloro-3-(2-methyl-5-pyridin-2-ylpyrazol-3-yl)oxypyridin-2-yl]pyridin-3-yl]-2-fluoroethanamine], the IC50 was below 10 nM.
Take `Cn1nc(C2CC2)cc1Oc1cc(Cl)ccc1-c1ncc(CN)cn1` [compound 1355, [2-[4-chloro-2-(5-cyclopropyl-2-methylpyrazol-3-yl)oxyphenyl]pyrimidin-5-yl]methanamine]: the IC50 is 10 to 1000 nM.
The same measure for `Cn1nc([C@@H]2CCOC2)cc1Oc1cc(Cl)ccc1-c1ncc(CN)cn1` [compound 1356, [2-[4-chloro-2-[2-methyl-5-[(3S)-oxolan-3-yl]pyrazol-3-yl]oxyphenyl]pyrimidin-5-yl]methanamine]: 10 to 1000 nM; for `Cn1nc(-c2ccccn2)cc1Oc1cc(Cl)ccc1-c1ncc([C@@H](O)CN)cn1` [compound 1357, (1R)-2-amino-1-[2-[4-chloro-2-(2-methyl-5-pyridin-2-ylpyrazol-3-yl)oxyphenyl]pyrimidin-5-yl]ethanol]: below 10 nM; for `Cn1nc(-c2ccccn2)cc1Oc1cc(Cl)ccc1-c1ncc([C@H](O)CN)cn1` [compound 1358, (1S)-2-amino-1-[2-[4-chloro-2-(2-methyl-5-pyridin-2-ylpyrazol-3-yl)oxyphenyl]pyrimidin-5-yl]ethanol]: 10 to 1000 nM.
For `Cn1nc(C2CCOCC2)cc1Oc1cc(Cl)ccc1-c1ncc([C@H](F)CN)cn1` [compound 1359, (2S)-2-[2-[4-chloro-2-[2-methyl-5-(oxan-4-yl)pyrazol-3-yl]oxyphenyl]pyrimidin-5-yl]-2-fluoroethanamine], the IC50 was 10 to 1000 nM.
The same measure for `Cn1nc(C2CCOCC2)cc1Oc1cc(Cl)ccc1-c1ncc([C@@H](F)CN)cn1` [compound 1360, (2R)-2-[2-[4-chloro-2-[2-methyl-5-(oxan-4-yl)pyrazol-3-yl]oxyphenyl]pyrimidin-5-yl]-2-fluoroethanamine]: below 10 nM.
As to `Cn1nc(C2CCOCC2)cc1Oc1cc(Cl)ccc1-c1ccc(CN)cn1` [compound 1361, [6-[4-chloro-2-[2-methyl-5-(oxan-4-yl)pyrazol-3-yl]oxyphenyl]pyridin-3-yl]methanamine], the IC50 is below 10 nM.
Consider `Cn1nc(C2CCOCC2)cc1Oc1cc(Cl)ccc1-c1ncc(CN)cn1` [compound 1362, [2-[4-chloro-2-[2-methyl-5-(oxan-4-yl)pyrazol-3-yl]oxyphenyl]pyrimidin-5-yl]methanamine], for which the IC50 was 10 to 1000 nM.
The result for `Cn1nc(-c2ccccn2)cc1Oc1cc(Cl)ccc1-c1ccc([C@@H](N)CO)cn1` [compound 1363, (2R)-2-amino-2-[6-[4-chloro-2-(2-methyl-5-pyridin-2-ylpyrazol-3-yl)oxyphenyl]pyridin-3-yl]ethanol] reads above 1000 nM; that for `Cn1nc(-c2ccccc2)nc1Oc1cc(Cl)ccc1-c1ncc(CN)cn1` [compound 1364, [2-[4-chloro-2-[(2-methyl-5-phenyl 1,2,4-triazol-3-yl)oxy]phenyl]pyrimidin-5-yl]methanamine], above 1000 nM.

The record behind these values is patent US20230167073A1 (Teijin Pharma Limited, priority 2020, published 2023).
